Source: patent publication US8513301B2, “Kind of piperphentonamine hydrochloride lyophilized powder for injection and preparation and use thereof” (Guangzhou Zhongwei Biotechnology Ltd., priority 2007, dated 2013)
Values belong to the molecule of their own block, whether it stands above or below them.

What was measured:
[1] = test system: cat heart failure model induced by verapamil; assay: Cardiac hemodynamic parameters in cat heart failure model induced by verapamil, intravenous administration; format: in vivo; conditions: 0.1 mg/kg; for +dP/dt max, Change, % / Cardiac contractility, Change % / HR, Change % / LVEDP, Change, % / LVSP, Change, % / MAP, Change % / −dP/dt max, Change, %: vs. baseline
Experimental: To study the therapeutic effect of the novel cardiotonic and vasodilator PPTA-I on heart failure, the cardiac hemodynamic parameters were determined by a polygraph in cat heart failure model induced by verapamil.

[2] = target: T1, cTnC isolated from cattle cardiac muscle (Bos taurus, UniProt P63315); assay: Affinity of Ca^2+ to cTnC by fluorescent probe dansyl chloride labeling; format: binding; conditions: for Influence on the affinity curve of cTnC to Ca^2+: 50 μmol/L; for Effect on the cTnC-Ca^2+ affinity curve: 55 μmol/L (FIG. 4)
T1 construct: cTnC isolated from cattle cardiac muscle; from tissue; host or cells: cattle cardiac muscle
From the text: The effect of PPTA-I on the affinity of Ca^2+ to cTnC isolated from cattle cardiac muscle was studied by fluorescent probe dansyl chloride labeling to discuss the calcium sensitization mechanisms of piperphentonamine hydrochloride, and compared the results to the already known calcium sensitizers MCI-154 and sulmazole (Sul).

[3] = Solubility and stability of piperphentonamine hydrochloride in water for injection; format: physicochemical
From the text: Piperphentonamine hydrochloride with the molecular formula C21H23NO4.HCl has a molecular weight of […], batch No. 2001803, provided by Guangzhou Zhongwei Biotechnology Ltd Company. Its preparation method is described in Chinese patent No. 02125318.8. […] In order to achieve the lyophilized powder for injection with good redissolving ability and stability, piperphentonamine hydrochloride and excipient need to be dissolved in water for injection with pH 1.5 to 5.5 and then lyophilized, especially preferred water for injection with pH 2 to 3.

[4] = conventionally known; cited from earlier work
[5] = test system: myocardial ischemia-reperfusion injury in cats; assay: Myocardial ischemia-reperfusion injury in cats in vivo (coronary artery arrest 30 min, reperfusion 60 min); design: species or system cat; conditions: 1.3 mg/kg
Experimental: In order to further evaluate the protective effect of PPTA on myocardium injured by ischemia-reperfusion, a pathological model of myocardial ischemia-reperfusion injury in cats in vivo was established by arrest the coronary artery for 30 min, then reperfusion for 60 min, studying the effects on blood biochemistry, myocardium ultrastructure, etc.

[6] = treated by sonication and heating

Molecule: Cc1[nH]c(=O)c(C#N)cc1-c1ccncc1 [Milrinone]
+dP/dt max increased by at most [1]: 61±26%
Effect on HRs [1]: did not affect
Effect on LVSP, LVEDP and −dP/dt max [1]: without changing
MAP decreased by [1]: 10%
Period of +dP/dt max increase [1]: over 20 minutes
Period of the effect on MAP and cardiac contractility [1]: 5 min
+dP/dt max, Change, % ([1]; 2 min): 18 ± 23 %
Cardiac contractility, Change % ([1]; 2 min): 38 ± 32 # %
HR, Change % ([1]; 2 min): 0 ± 5%
LVEDP, Change, % ([1]; 2 min): 1 ± 2%
LVSP, Change, % ([1]; 2 min): 4 ± 11%
MAP, Change % ([1]; 2 min): −4 ± 4 %
−dP/dt max, Change, % ([1]; 2 min): 0 ± 23%
+dP/dt max, Change, % ([1]; 5 min): 52 ± 24 ### %
Cardiac contractility, Change % ([1]; 5 min): 92 ± 80 # %
HR, Change % ([1]; 5 min): 2 ± 15%
LVEDP, Change, % ([1]; 5 min): 5 ± 16%
LVSP, Change, % ([1]; 5 min): 5 ± 15%
MAP, Change % ([1]; 5 min): −10 ± 8 # %
−dP/dt max, Change, % ([1]; 5 min): 3 ± 19%
+dP/dt max, Change, % ([1]; 10 min): 61 ± 26 ### %
Cardiac contractility, Change % ([1]; 10 min): 71 ± 78 %
HR, Change % ([1]; 10 min): 2 ± 16%
LVEDP, Change, % ([1]; 10 min): −1 ± 5%
LVSP, Change, % ([1]; 10 min): 6 ± 17%
MAP, Change % ([1]; 10 min): −10 ± 6 ## %
−dP/dt max, Change, % ([1]; 10 min): 11 ± 20%
+dP/dt max, Change, % ([1]; 15 min): 54 ± 33 ## %
Cardiac contractility, Change % ([1]; 15 min): 58 ± 74 %
HR, Change % ([1]; 15 min): 3 ± 16%
LVEDP, Change, % ([1]; 15 min): −7 ± 16%
LVSP, Change, % ([1]; 15 min): 3 ± 18%
MAP, Change % ([1]; 15 min): −10 ± 8 # %
−dP/dt max, Change, % ([1]; 15 min): 8 ± 23%
+dP/dt max, Change, % ([1]; 20 min): 61 ± 45 # %
Cardiac contractility, Change % ([1]; 20 min): 61 ± 69 %
HR, Change % ([1]; 20 min): −13 ± 37%
LVEDP, Change, % ([1]; 20 min): 2 ± 11%
LVSP, Change, % ([1]; 20 min): 4 ± 22%
MAP, Change % ([1]; 20 min): −8 ± 12%
−dP/dt max, Change, % ([1]; 20 min): −4 ± 22%

Shift of cTnC-Ca^2+ affinity curve to the left compared with the control curve ([2]; 55 μmol/L (FIG. 3)): 0.2 pCa
Stability in water for injection ([3]; easy to degrade and turn yellow): not stable
Solubility in water for injection with pH 1.5 to 5.5 [3, 6]: easy to be dissolved
pH of water for injection with the best solubility and stability [3, 6]: 2 to 3
Solubility in water for injection ([3]; untreated): difficult to be dissolved
Molecule: piperphentonamine hydrochloride
Shift of cTnC-Ca^2+ affinity curve ([2]; 15 μmol/L): slightly shifted to the left without statistical significance
Shift of cTnC-Ca^2+ affinity curve ([2]; 35 μmol/L): shifted to the left with statistical significance
Solubility in water [4]: insoluble or poor soluble in water

Influence on the affinity curve of cTnC to Ca^2+ [2]: no significant influence
Effect on the cTnC-Ca^2+ affinity curve [2]: no significant effect
Molecule: COc1cc([S+](C)[O-])ccc1-c1nc2ncccc2[nH]1 (stereo not drawn) [Sul, sulmazole]

Influence on the affinity curve of cTnC to Ca^2+ [2]: no significant influence
Effect on the cTnC-Ca^2+ affinity curve [2]: no significant effect
Molecule: O=C1CCC(c2ccc(Nc3ccncc3)cc2)=NN1 [MCI-154]

Molecule: COc1ccc(CCN(C)CCCC(C#N)(c2ccc(OC)c(OC)c2)C(C)C)cc1OC (stereo not drawn) [verapamil]
Score of myocardium pathological change ([5]; injury control 2.5 ± 0.55): 1.3 ± 0.18
Content of cTnI ([5]; serum, injury control 2.3 ± 0.62): 1.4 ± 0.21
Content of MDA ([5]; serum, injury control 86 ± 17): 65 ± 12 nmol/L
CPK activity ([5]; serum, injury control 385 ± 75): 271 ± 80
